Values of other authors, collected in patent publication US5185366A, “Method for treatment and prevention of diseases caused by enveloped viruses, including herpes simplex virus types 1 and 2 diseases, using 3,4-dihydroxy-2H-benzopyran-2H-one” (Ohio State University Research Foundation, priority 1990, dated 1993).

Legend:
HBV DNA polymerase = details: 5-250 μg/mL, Kessler et al.; cited from earlier work
hepatitis B virus (HBV) = details: 5-250 μg/mL, Kessler et al.; cited from earlier work

C[C@@H]1[C@H](O)[C@@H](C)/C=C/C=C/C=C/C=C/C=C/C=C/C=C/[C@H](O[C@@H]2O[C@H](C)[C@@H](O)[C@H](N)[C@@H]2O)C[C@@H]2O[C@](O)(C[C@@H](O)C[C@@H](O)[C@H](O)CC[C@@H](O)C[C@@H](O)CC(=O)O[C@H]1C)C[C@H](O)[C@H]2C(=O)O [amphotericin B]
HBV DNA polymerase activity (HBV DNA polymerase): concentration dependent increase in HBV DNA polymerase activity | effect on HBV particle / envelope (hepatitis B virus (HBV)): changes in electron microscopic appearance of the virus, increased penetration of negative stain into the lipid envelope, disruption of the particle | increase in density of HBV (hepatitis B virus (HBV)): 1.165 to 1.225 g/mL
